Where “and” joins values, the source holds several entries; their conditions need not be identical. Identical values can stand only once. Like-named read-outs stand apart in the source and are kept apart here.
Experiments:
[1] = target: plasma esterase (Homo sapiens, UniProt P06276); details: cited from earlier work
[2] = cited from earlier work
[3] = tested on: central pore of sodium channels; details: cited from earlier work
[4] = tested on: procaine induced convulsion; details: diazepam 0.3 mg/kg intravenous; procaine 100-150 mg/kg intraperitoneally; animal model; cited from earlier work
[5] = in vivo, po; cited from earlier work
[6] = tested on: patients with acute or chronic pain; details: cited from earlier work
[7] = tested on: dorsal root ganglia neurons; details: neurons with an abundance of Nav 1.8 channels; cited from earlier work
[8] = in vivo, iv; cited from earlier work
[9] = Ion trapping effects of charged and uncharged procaine (pH=pKa+log B/BH+)
From the text: As the molecule transits from the blood to neural cytoplasm, procaine becomes more charged and less lipophilic within the cytoplasm of the neuron, and the concentration of the active charge species increases. The charged active species is essentially trapped in the cytoplasm, only being able to exit after hydrolysis to PABA and DEAE or through distribution.
The intraneural pH of human dorsal root ganglia is not known, but it is generally accepted that intraneural pH decreases with neural activity. The pH of cervical ganglia of a rodent is reported as 7.30-6.51, and the typical resting or “steady-state” pH within a hippocampal neuron is reported as ˜7.03-7.46,[30]

[10] = tested on: patients with chronic pain; details: cited from earlier work
[11] = Pharmacokinetics of intravenous procaine; format: in vivo; details: 95 mg bolus IV, 70 kg human, calculated
Description: In a 70 kg human, with an average central compartment procaine blood volume of distribution of 0.57 L/kg procaine or 40.0. L, an initial blood level of 2.36 μg/ml is obtained with a 95 mg bolus IV procaine administration.[16]

Chain of plasma esterase (P06276 29-602): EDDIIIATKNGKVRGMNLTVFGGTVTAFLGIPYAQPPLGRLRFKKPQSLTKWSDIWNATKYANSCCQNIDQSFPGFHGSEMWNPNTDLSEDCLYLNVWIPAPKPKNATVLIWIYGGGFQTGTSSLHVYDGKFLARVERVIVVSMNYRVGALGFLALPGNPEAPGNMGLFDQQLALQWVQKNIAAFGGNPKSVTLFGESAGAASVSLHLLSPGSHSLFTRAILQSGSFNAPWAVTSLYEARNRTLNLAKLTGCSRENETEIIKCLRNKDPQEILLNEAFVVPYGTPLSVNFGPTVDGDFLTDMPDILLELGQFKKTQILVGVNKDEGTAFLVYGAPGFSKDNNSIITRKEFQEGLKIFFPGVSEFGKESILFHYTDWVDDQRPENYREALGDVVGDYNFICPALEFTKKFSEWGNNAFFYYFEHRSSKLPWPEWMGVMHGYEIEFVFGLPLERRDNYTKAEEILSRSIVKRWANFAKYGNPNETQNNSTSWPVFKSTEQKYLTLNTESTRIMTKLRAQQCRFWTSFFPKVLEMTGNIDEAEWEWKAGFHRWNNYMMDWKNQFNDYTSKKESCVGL

CCN(CC)CCOC(=O)c1ccc(N)cc1Cl [2-chloroprocaine]
Rate of hydrolysis by plasma esterase relative to procaine [1]: 4 ×

CCN(CC)CCO [DEAE, diethylaminoethanol]
pKa [2]: ~10.1

Cc1cccc(C)c1NC(=O)CN [GX, glycinexylidide]
Potency relative to the parent drug lidocaine [3]: nearly ineffective

CCNCC(=O)Nc1c(C)cccc1C [MEGX, monoethylglycinexylidide]
Potency relative to the parent drug lidocaine [3]: 80%

Nc1ccc(C(=O)O)cc1 [PABA, para-aminobenzoic acid]
pKa [2]: ~4.6

CN1C(=O)CN=C(c2ccccc2)c2cc(Cl)ccc21 [diazepam]
Effect on procaine induced convulsion [4]: aborted procaine induced convulsion

CCN(CC)CCOC(=O)c1ccc(N)cc1 [procaine]
Peak plasma procaine levels [5]: 0.2-3.1 mg percent
Relief of pain and discomfort ([6]; Betcher, IV, 92 patients, various orthopedic conditions): adequate relief
Analgesia ([6]; Kahl, IV infusion 2000 mg over 24 hours, acute pancreatic pain): poor analgesia
Analgesia ([6]; Keats, IV, approximate dose 370 mg, 53 patients, acute post-operative pain): inadequate analgesia
Chronic pain relief (patients) ([6]; Shanbrom, 500 mg to 1000 mg IV, postherpetic neuralgia): 13/16
Relief of acute pain ([6]; Zeluff, IV 1000 mg, 3 patients, traumatic military injuries): dramatic relief
Minimum concentration for block of dorsal root ganglia neurons [7]: 10 µM
Blood level considered therapeutic [8]: 10000 ng/mL
[BH+]/[B] ([9]; Blood, pH 7.4): 32
[BH+]/[B] ([9]; CSF, pH 7.32): 38
[BH+]/[B] ([9]; Ganglia or intraneural, pH 7.30-6.51): 40-245
[BH+]/[B] ([9]; Interstitial, pH 7.4): 32
Predicted intraneural [BH+] relative to blood [BH+] ([9]; ion trapping and diminished CSF pseudocholinesterase activity, without Michaelis-Menten kinetics): ≤ 750 times
Factor of increase of [BH+]/[B] from blood to intraneural cytoplasm ([9]; ion trapping only): at least 7.5
Efficacy (patients successfully treated) ([10]; Balfour 1951, oral 80 mg with Metamucil, chronic dysphagia): 8
Efficacy (patients with relief / patients treated) ([10]; Beinhauer 1954, oral 3000 mg/day, herpes zoster or burning tongue syndrome): 9/14
Efficacy (patients with analgesia / patients treated) ([10]; Klein 1953, oral 450 mg TID, chronic pain from arthritis): 38/50
Efficacy (patients with analgesia / patients treated) ([10]; Koch 1989, oral 200 mg BID, procaine double salt complex, chronic pain from rheumatoid arthritis): 29/30
Efficacy (patients with analgesia / patients treated) ([10]; Kupperman 1957, oral 1000 mg TID with meals, arthritis): no analgesia and 0/50
Efficacy (patients with chronic pain relief / patients treated) ([10]; Traut 1952, oral 3000 mg/day in divided doses after meals, arthritis): 5/32
Initial blood level [11]: 2.36 µg/mL

From patent US20240130998A1, “ANALGESIA FROM ORAL PROCAINE A FORGOTTEN VOLTAGE GATED SODIUM CHANNEL BLOCKER” (priority 2023, published 2024)
